# Measurements published in a compilation of properties of binary mixtures (doi:10.1016/j.molliq.2015.01.031).
# Test: xn = mol fraction of the nth substance listed
# Conditions: 101 kPa
structure (smiles),measurement,setting,value
CCCC[n+]1ccn(C)c1.F[B-](F)(F)F + CC(O)CO,speed of sound,"303.15 K, x2 = 0",1552.9 m/s
same,speed of sound,"318.15 K, x2 = 0",1518 m/s
same,speed of sound,"323.15 K, x2 = 0",1506.6 m/s
CC(O)CO (stereo unspecified) + CCCC[n+]1ccn(C)c1.F[B-](F)(F)F,speed of sound,"298.15 K, x1 = 0.4189",1545.8 m/s
same,speed of sound,"298.15 K, x1 = 0.5064",1541.1 m/s
same,speed of sound,"298.15 K, x1 = 0.6165",1535.1 m/s
same,speed of sound,"298.15 K, x1 = 0.695",1530.5 m/s
same,speed of sound,"298.15 K, x1 = 0.797",1524.7 m/s
same,speed of sound,"298.15 K, x1 = 0.8966",1518.5 m/s
same,speed of sound,"298.15 K, x1 = 1",1511 m/s
same,speed of sound,"303.15 K, x1 = 0.1182",1548.1 m/s
same,speed of sound,"303.15 K, x1 = 0.2003",1544.1 m/s
same,speed of sound,"303.15 K, x1 = 0.3122",1538.9 m/s
same,speed of sound,"303.15 K, x1 = 0.5064",1529 m/s
same,speed of sound,"303.15 K, x1 = 0.6165",1522.8 m/s
same,speed of sound,"303.15 K, x1 = 0.797",1511.8 m/s
same,speed of sound,"303.15 K, x1 = 0.8966",1505.3 m/s
same,speed of sound,"303.15 K, x1 = 1",1497.2 m/s
same,speed of sound,"308.15 K, x1 = 0.2003",1532.3 m/s
same,speed of sound,"308.15 K, x1 = 0.4189",1521.8 m/s
same,speed of sound,"308.15 K, x1 = 0.5064",1516.9 m/s
same,speed of sound,"308.15 K, x1 = 0.6165",1510.4 m/s
same,speed of sound,"308.15 K, x1 = 0.695",1505.3 m/s
same,speed of sound,"308.15 K, x1 = 0.797",1498.8 m/s
same,speed of sound,"308.15 K, x1 = 0.8966",1491.8 m/s
same,speed of sound,"308.15 K, x1 = 1",1483.1 m/s
same,speed of sound,"313.15 K, x1 = 0.1182",1524.6 m/s
same,speed of sound,"313.15 K, x1 = 0.2003",1520.6 m/s
same,speed of sound,"313.15 K, x1 = 0.3122",1515.2 m/s
same,speed of sound,"313.15 K, x1 = 0.4189",1509.8 m/s
same,speed of sound,"313.15 K, x1 = 0.5064",1504.7 m/s
same,speed of sound,"313.15 K, x1 = 0.695",1492.6 m/s
same,speed of sound,"313.15 K, x1 = 0.797",1485.7 m/s
same,speed of sound,"313.15 K, x1 = 1",1469 m/s
same,speed of sound,"318.15 K, x1 = 0.1182",1513 m/s
same,speed of sound,"318.15 K, x1 = 0.2003",1509 m/s
same,speed of sound,"318.15 K, x1 = 0.4189",1497.9 m/s
same,speed of sound,"318.15 K, x1 = 0.5064",1492.5 m/s
same,speed of sound,"318.15 K, x1 = 0.6165",1485.5 m/s
same,speed of sound,"318.15 K, x1 = 0.695",1480 m/s
same,speed of sound,"318.15 K, x1 = 0.797",1472.7 m/s
same,speed of sound,"318.15 K, x1 = 1",1454.9 m/s
same,speed of sound,"323.15 K, x1 = 0.1182",1501.6 m/s
same,speed of sound,"323.15 K, x1 = 0.2003",1497.4 m/s
same,speed of sound,"323.15 K, x1 = 0.3122",1491.8 m/s
same,speed of sound,"323.15 K, x1 = 0.4189",1486.1 m/s
same,speed of sound,"323.15 K, x1 = 0.5064",1480.5 m/s
same,speed of sound,"323.15 K, x1 = 0.695",1467.3 m/s
same,speed of sound,"323.15 K, x1 = 0.797",1459.6 m/s
same,speed of sound,"323.15 K, x1 = 0.8966",1451.4 m/s
same,speed of sound,"323.15 K, x1 = 1",1440.7 m/s
OCCCO + CCCC[n+]1ccn(C)c1.F[B-](F)(F)F,speed of sound,"298.15 K, x1 = 0.1026",1564.2 m/s
same,speed of sound,"298.15 K, x1 = 0.2072",1563.5 m/s
same,speed of sound,"298.15 K, x1 = 0.3172",1565.2 m/s
same,speed of sound,"298.15 K, x1 = 0.503",1574.2 m/s
same,speed of sound,"298.15 K, x1 = 0.6011",1580.8 m/s
same,speed of sound,"298.15 K, x1 = 0.7009",1590 m/s
same,speed of sound,"298.15 K, x1 = 0.8979",1612.8 m/s
same,speed of sound,"298.15 K, x1 = 1",1628.8 m/s
same,speed of sound,"303.15 K, x1 = 0.2072",1551.8 m/s
same,speed of sound,"303.15 K, x1 = 0.3172",1553.4 m/s
same,speed of sound,"303.15 K, x1 = 0.3943",1557.4 m/s
same,speed of sound,"303.15 K, x1 = 0.503",1562.4 m/s
same,speed of sound,"303.15 K, x1 = 0.6011",1569 m/s
same,speed of sound,"303.15 K, x1 = 0.7009",1578.2 m/s
same,speed of sound,"303.15 K, x1 = 0.8006",1589.4 m/s
same,speed of sound,"303.15 K, x1 = 0.8979",1601.1 m/s
same,speed of sound,"303.15 K, x1 = 1",1617.6 m/s
same,speed of sound,"308.15 K, x1 = 0.1026",1540.8 m/s
same,speed of sound,"308.15 K, x1 = 0.2072",1539.9 m/s
same,speed of sound,"308.15 K, x1 = 0.3172",1541.5 m/s
same,speed of sound,"308.15 K, x1 = 0.3943",1545.5 m/s
same,speed of sound,"308.15 K, x1 = 0.503",1550.6 m/s
same,speed of sound,"308.15 K, x1 = 0.6011",1557.2 m/s
same,speed of sound,"308.15 K, x1 = 0.7009",1566.5 m/s
same,speed of sound,"308.15 K, x1 = 0.8006",1577.8 m/s
same,speed of sound,"308.15 K, x1 = 1",1606.2 m/s
same,speed of sound,"313.15 K, x1 = 0.1026",1529.1 m/s
same,speed of sound,"313.15 K, x1 = 0.2072",1528.2 m/s
same,speed of sound,"313.15 K, x1 = 0.6011",1545.5 m/s
same,speed of sound,"313.15 K, x1 = 0.7009",1554.8 m/s
same,speed of sound,"313.15 K, x1 = 0.8006",1566.2 m/s
same,speed of sound,"313.15 K, x1 = 0.8979",1578.1 m/s
same,speed of sound,"313.15 K, x1 = 1",1594.8 m/s
same,speed of sound,"318.15 K, x1 = 0.1026",1517.6 m/s
same,speed of sound,"318.15 K, x1 = 0.2072",1516.6 m/s
same,speed of sound,"318.15 K, x1 = 0.3172",1518.1 m/s
same,speed of sound,"318.15 K, x1 = 0.3943",1522.1 m/s
same,speed of sound,"318.15 K, x1 = 0.503",1527.1 m/s
same,speed of sound,"318.15 K, x1 = 0.8006",1554.6 m/s
same,speed of sound,"318.15 K, x1 = 0.8979",1566.6 m/s
same,speed of sound,"318.15 K, x1 = 1",1583.5 m/s
same,speed of sound,"323.15 K, x1 = 0.1026",1506.2 m/s
same,speed of sound,"323.15 K, x1 = 0.2072",1505.1 m/s
same,speed of sound,"323.15 K, x1 = 0.3172",1506.5 m/s
same,speed of sound,"323.15 K, x1 = 0.503",1515.5 m/s
same,speed of sound,"323.15 K, x1 = 0.6011",1522.2 m/s
same,speed of sound,"323.15 K, x1 = 0.7009",1531.6 m/s
same,speed of sound,"323.15 K, x1 = 0.8006",1543.1 m/s
same,speed of sound,"323.15 K, x1 = 1",1572.1 m/s
CCCC[n+]1ccn(C)c1.F[B-](F)(F)F + OCCCO,speed of sound,"298.15 K, x2 = 0",1565.1 m/s
same,speed of sound,"303.15 K, x2 = 0",1553.2 m/s
same,speed of sound,"308.15 K, x2 = 0",1541.3 m/s
same,speed of sound,"313.15 K, x2 = 0",1529.7 m/s
same,speed of sound,"318.15 K, x2 = 0",1518.2 m/s
same,speed of sound,"323.15 K, x2 = 0",1506.8 m/s
